Active and inactive are the calls of the source. The rule behind the calls is not given here.
What was measured:
[1] = biological target: T1, Transcription factor HES-1 (Mus musculus, UniProt P35428); assay: Inhibition of Cy3-labeled mouse recombinant Hes1 (3-281) dimer formation expressed in Escherichia coli by microplate-based assay
T1 sequence (P35428 whole entry): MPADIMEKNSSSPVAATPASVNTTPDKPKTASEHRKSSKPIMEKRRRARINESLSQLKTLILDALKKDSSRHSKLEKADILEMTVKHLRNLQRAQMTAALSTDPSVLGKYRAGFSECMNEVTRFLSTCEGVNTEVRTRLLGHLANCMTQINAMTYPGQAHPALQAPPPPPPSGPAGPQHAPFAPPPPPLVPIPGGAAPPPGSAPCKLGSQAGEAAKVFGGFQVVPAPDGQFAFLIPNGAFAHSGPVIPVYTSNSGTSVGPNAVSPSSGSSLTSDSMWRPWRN

[2] = biological target: T2, Transcription factor HES-1 (Mus musculus) (UniProt P35428); settings: C3H 10T1/2, 50 uM
T2 sequence (whole entry): T1 sequence (P35428 whole entry)
Description: Inhibition of mouse Hes1-mediated suppression of basic helix-loop-helix activator genes in C3H10T1/2 cells at 50 uM by luciferase transactivation assay

[3] = biological target: T2, Transcription factor HES-1 (Mus musculus); assay: Inhibition of Cy3-labeled mouse recombinant Hes1 (3-281) dimer formation expressed in Escherichia coli at 100 uM by microplate-based assay

Row | SMILES | IC50 [1] | inhibition [2] | inhibition [3]
1 | C/C=C1/[C@H]2OC=C(C(=O)O)[C@H]1CC(=O)OC[C@H](c1ccc(O)c(O)c1)OC[C@H]1O[C@@H](O2)[C@H](O)[C@@H](O)[C@@H]1O | 7.8 µM |  | 
2 | COc1cc([C@H]2c3c(cc(OC)c(O)c3OC)C[C@@H](CO)[C@@H]2CO[C@@H]2OC[C@@H](O)[C@H](O)[C@H]2O)cc(OC)c1O [LYONISIDE] | 48.1 µM |  | 
3 | COc1cc([C@@H]2c3c(cc(OC)c(O)c3OC)C[C@H](CO)[C@H]2CO[C@@H]2OC[C@@H](O)[C@H](O)[C@H]2O)cc(OC)c1O [NUDIPOSIDE] | 9.6 µM |  | 
4 | O=C1NCc2c1c1c3ccccc3[nH]c1c1[nH]c3ccccc3c21 |  |  | inactive

The remaining lines, values ahead:

Row | IC50 [1] | inhibition [2] | inhibition [3] | SMILES
5 | 4.1 µM | 60% |  | CCCC(=O)/C=C/C1=C(O)C(=O)c2cc(O)c(O)cc2C1=O [LINDBLADIONE]
6 |  |  | inactive | COC(=O)c1[nH]c(C(=O)O)c(-c2c[nH]c3ccccc23)c1-c1c[nH]c2ccccc12
7 | 16.5 µM |  |  | COC(=O)c1[nH]c(C(=O)OC)c(-c2c[nH]c3ccc(O)cc23)c1-c1c[nH]c2ccccc12 [LYCOGARUBIN B]
8 | 6 µM | 60% |  | O=C(O)c1[nH]c(C(=O)O)c(-c2c[nH]c3ccccc23)c1-c1c[nH]c2ccccc12 [LYCOGALIC ACID A]
9 |  |  | inactive | COC(=O)c1[nH]c(C(=O)OC)c(-c2c[nH]c3ccccc23)c1-c1c[nH]c2ccccc12

Source: ChEMBL document CHEMBL1156024, “The first Hes1 dimer inhibitors from natural products” (Bioorg Med Chem Lett, 2009)
